Test results published in patent publication US10287294B2, “Compounds for use in treating or preventing cancerous diseases” (BIOMEDICAL RESEARCH FOUNDATION OF THE ACADEMY OF ATHENS, priority 2015, dated 2019).
One block for each molecule: values may come before it.

Assays:
[1] = test system: human prostate cancer xenografts; details: two weeks in vivo treatment with 20 or 30 mg/kg; cited from earlier work
TGR-1 cells = assay: MTT cell viability assay, TGR-1 cells (Myc+/+); assay type: cell-based; details: Rattus norvegicus, TGR1, 72 h; for IC50: Myc+/+ cells, MTT day 3, logit-log linear regression
Source text: (§1) To evaluate the in vitro activity of the compound having the formula (II) (Amy22), the sibling cell lines TGR-1 and H015.19 were used. The TGR-1 cells are a subclone of the Rat-1 fibroblastic cell line with intact Myc (Myc^+/+), whereas the H015.19 cells are Myc^−/− derivatives of the TGR-1 cells (Mateyak et al., 1997). The two sibling cell lines thus differ only in the presence or absence of Myc, thereby allowing to determine not only the activity of the tested compound in Myc-positive cancer cells, but also in cells not expressing Myc offering an indication of the specificity of the tested compound.
(§2) The TGR-1 and H015.19 cells were grown in DMEM supplemented with 10% FBS. Equal numbers of cells were seeded in multiple wells of 24-well plates at low density (<20% confluence at day 0), and either DMSO or DMSO-dissolved Amy22 (various concentrations) was added to the medium (final concentration of DMSO: 0.1%). Cell viability (sextuplicates) was measured on day 3 by using a standard MTT (Thiazolyl Blue Tetrazolium Bromide) colorimetric assay (Mosmann, 1983). Half-maximal inhibitory concentrations (IC50) were determined using a log it-log plot and linear regression of the data (SigmaPlot software; Systat Software, Inc., San Jose, Calif., USA), as shown in FIG. 1 and Table 1. The measured data were plotted on the log it-log plot for linear regression of cell viability data (average values from 5 independent experiments in each case), in order to calculate the Amy22 IC50 for the sibling cell lines that differ only in the presence or absence of Myc (TGR-1 and H015.19 cells, respectively). The IC50 for H015.19 cells was calculated by extrapolation.

[2] = MTT cell viability assay, H015.19 cells (Myc-/-); assay type: cell-based, rat; details: rat, H015.19 cells (Myc-/- derivatives of TGR-1), day 3, MTT, average ± S.E.M
Source text: as §1, §2

H015.19 cells = assay: MTT cell viability assay, H015.19 cells (Myc-/-); assay type: cell-based, rat; details: Rattus norvegicus, 72 h, Myc-/- cells
Source text: as §1, §2

[3] = test system: human pancreatic ductal adenocarcinoma cell line MiaPaCa2 xenografts; assay: Amy22 treatment of MiaPaCa2 xenografts in NOD/SCID mice; assay type: in vivo; details: Amy22 150 mg/kg for two weeks
Protocol: For transplantation, eight-week old NOD/SCID mice were anesthetized using a steady flow of a mixture of isofluorane gas (4%) and oxygen and inoculated subcutaneously into their lateral flanks with 10^6 cancer cells and monitored daily until the tumors became palpable (tumor volume ˜100 mm^3). The mice were then divided randomly into two groups for Amy22 (150 mg/kg) or vehicle administration for a period of two weeks. Average weights±S.E.M (n=4 in each case) are indicated (p<0.001 and <0.05 for MiaPaCa2 and MMTV-Myc, respectively). […] FIG. 3 illustrates the gross appearance of surgically recovered Amy22-treated or untreated (control) xenografts.

[4] = test system: pancreatic ductal adenocarcinoma (PDA); assay: Micro PET/CT imaging of Pdx1-Cre/KRAS*A mouse treated with Amy22; assay type: in vivo
Protocol: PET/CT images were acquired of a Pdx1-Cre/KRAS*A mouse at the beginning and end of treatment (one month) of pancreatic ductal adenocarcinoma (PDA) with the Amy22 compound (cf. FIG. 4; a representative out of three independent experiments is shown). Dosing solutions of 20 mg/ml Amy22 in 0.5% carboxymethyl cellulose (CMC) were used for daily administration per os (0.15 ml per animal, dose 150 mg/kg) for 30 days. The diminished uptake of ^18F-FDG by remnants of PDA is evident and measured by the standardized uptake values (SUV values) that were 2.87 at the beginning and 1.5 at the end of the treatment. The white arrows indicate the anatomical sites of pancreata. High-level concentration of ^18F-FDG in the urinary bladder (excretion of the tracer) and also in the heart (yellow arrows) is noted.

[5] = Blood concentrations of Amy22 after oral gavage to mice (LC-MS/MS, non-compartmental analysis); assay type: in vivo, mouse
Protocol: Animals at the age of 10 weeks were fasted overnight and weighed before dosing (average weight=21.6 g, n=6 male C57BL/6N). Dosing solutions of 20 mg/ml Amy22 in 0.5% carboxymethyl cellulose (CMC) were used for administration per os (0.15 ml per animal, dose 140 mg/kg). A serial tail bleeding protocol was used for the collection of blood samples. Blood samples (10 μl) were collected at selected time points (0.5, 1, 2, 4, 8, 24 hours) in tubes containing 40 μl sodium citrate (0.1 M, pH 4.5) and stored at −80° C. until sample extraction. Samples were prepared for quantification by protein precipitation and evaporation. Amy22 was quantified by LC-MS/MS analysis.
Pharmacokinetic Parameters Using Non-Compartmental Analysis

[6] = test system: pancreatic ductal adenocarcinoma (PDA); assay: Post-mortem gamma counting of 18F-FDG uptake in Pdx1-Cre/KRAS*A mice after monotherapy or combination with Amy22; assay type: in vivo, mouse; details: one month; Gemcitabine 300 mg/kg IP weekly; in combination Amy22 150 mg/kg per os daily
Protocol: The representative PET/CT images shown were acquired for Pdx1-Cre/KRAS*A mice at the beginning and end of treatment (one month) of pancreatic ductal adenocarcinoma (PDA) using either Gemcitabine alone or a combination of Gemcitabine and Amy22. The scheme used for the treatment was as follows: weekly IP administration of Gemcitabine (300 mg/kg) in both cases and daily administration of AMY22 per os (150 mg/kg) in the combination treatment (cf. FIG. 5).
In some scans, a high-level concentration of ^18F-FDG in the urinary bladder (excretion of the tracer) could be observed. High uptake of radioactivity (unrelated to the presence of tumor) was also noted in the heart.

[7] = mouse, whole blood, po, blood, male C57BL/6N mice, 140 mg/kg per os in 0.5% CMC
[8] = MTT day 3, logit-log linear regression

IC50 (H015.19 cells; MTT day 3, calculated by extrapolation): 1800 µM | Elimination rate constant (ke) ([5]; blood, male C57BL/6N mice, 140 mg/kg per os in 0.5% CMC): 0.2 ± 0.1 h⁻¹ | AUC(0-inf) [5, 7]: 35.4 ± 9.5 µM·h | Cmax [5, 7]: 6.2 ± 1.1 µM | Tmax [5, 7]: 1.5 ± 0.5 h | AUC(0-t) ([5]; mouse, whole blood, po, blood, male C57BL/6N mice, 140 mg/kg per os in 0.5% CMC, read-out: AUC0-24): 33.6 ± 8.3 µM·h | blood concentrations ([5]; up to at least 8 hr post dose, oral 140 mg/kg): > 1 micro molar
SMILES: O=C(Nc1c(C(=O)O)cnn1-c1ccccc1)c1cc2nc(-c3ccco3)cc(C(F)(F)Cl)n2n1 [Amy22]
viability at 0.1 µM (TGR-1 cells; Amy22 0.1 μM, day 3, MTT, average ± S.E.M): 84.4 ± 5% | viability at 0.5 µM (TGR-1 cells; Amy22 0.5 μM, day 3, MTT, average ± S.E.M): 73.7 ± 4% | viability at 1 µM (TGR-1 cells; Amy22 1 μM, day 3, MTT, average ± S.E.M): 67.3 ± 4.1% | viability at 5 µM (TGR-1 cells; Amy22 5 μM, day 3, MTT, average ± S.E.M): 54.5 ± 4.6% | viability at 10 µM (TGR-1 cells; Amy22 10 μM, day 3, MTT, average ± S.E.M): 46 ± 2.5% | viability at 25 µM (TGR-1 cells; Amy22 25 μM, day 3, MTT, average ± S.E.M): 39.9 ± 2.2% | viability at 50 µM (TGR-1 cells; Amy22 50 μM, day 3, MTT, average ± S.E.M): 26.8 ± 4.8% | viability at 100 µM (TGR-1 cells; Amy22 100 μM, day 3, MTT, average ± S.E.M): 19 ± 3.7% | IC50 (TGR-1 cells): 5.8 µM | viability at 3 days, 0.1 μM ([2]; Amy22 0.1 μM): 86.3 ± 5.9% | viability at 3 days, 0.5 μM ([2]; Amy22 0.5 μM): 84.7 ± 5.7% | viability at 3 days, 1 μM ([2]; Amy22 1 μM): 80 ± 4.1% | viability at 3 days, 5 μM ([2]; Amy22 5 μM): 75.3 ± 8.8% | viability at 3 days, 10 μM ([2]; Amy22 10 μM): 74.6 ± 4.9% | viability at 3 days, 25 μM ([2]; Amy22 25 μM): 70.8 ± 5.1% | viability at 3 days, 50 μM ([2]; Amy22 50 μM): 67.8 ± 4% | viability at 3 days, 100 μM ([2]; Amy22 100 μM): 61.1 ± 3.8% | apoptosis in xenografts [3]: induced apoptosis | proliferation index (Ki67 immunohistochemistry) ([3]; MiaPaCa2 xenografts, controls 69.9±5.1%): 15.0±3.3% | survival and condition of treated mice ([4]; after 150 mg/kg per os daily for 30 days): still alive 3 months post-treatment with no evident signs of cachexia | standardized uptake value (SUV) of 18F-FDG ([4]; at the beginning of treatment): 2.87 | standardized uptake value (SUV) of 18F-FDG ([4]; at the end of treatment, 150 mg/kg per os daily for 30 days): 1.5

IC50 (H015.19 cells; [8]): 13.4 µM
SMILES: O=C(Nc1ccc(F)cc1)c1cc2nc(-c3ccco3)cc(C(F)(F)Cl)n2n1 [formula (III), reference compound]
IC50 (TGR-1 cells): 6.5 µM

IC50 (H015.19 cells; [8]): 58.8 µM
SMILES: O=C(c1cc2nc(-c3ccco3)cc(C(F)(F)Cl)n2n1)N1CCNCC1 [formula (IV), reference compound]
IC50 (TGR-1 cells): 12.3 µM

Second part, the molecule before the results:

SMILES: CCc1ccc(C=C2SC(=S)NC2=O)cc1 [10058-F4, [Z,E]-5-[4-ethylbenzylidine]-2-thioxothiazolidin-4-one]
inhibition of tumor growth [1]: no significant inhibition of tumor growth

SMILES: Nc1ccn([C@@H]2O[C@H](CO)[C@@H](O)C2(F)F)c(=O)n1 [Gemcitabine]
remaining tumor as % of untreated PDA tumors (18F-FDG uptake, gamma counting post-mortem) [6]: 31%
